Peptide text beside a SMILES is read from it.
Assays:
[1] = relative to sucrose; cited from earlier work
[2] = Solubility in water at room temperature; type: physicochemical; conditions: for solubility in water, comparison in words: compared with other dihydrochalcones / with 3-phenyl-1-(2,4,6-trimethoxyphenyl)propan-1-one; for solubility: in water at room temperature
[3] = Masking of off-notes of high-intensity sweeteners (comparison of dihydrochalcones); conditions: used at soluble concentrations

Molecule | times sweeter than sucrose [1] | solubility in water, comparison in words [2] | masking properties / masking effect [3] | solubility [2]
thaumatin | about 2 000 times |  |  | 
O=C(CCc1ccc(O)cc1)c1c(O)cc(O)cc1O [phloretin, 3-(4-hydroxyphenyl)-1-(2,4,6-trihydroxyphenyl)propan-1-one] |  | soluble to a similar extent | did not provide masking properties | 
OC[C@H]1O[C@H](O[C@]2(CCl)O[C@H](CCl)[C@@H](O)[C@@H]2O)[C@H](O)[C@@H](O)[C@H]1Cl [sucralose] | about 600 times |  |  | 
COC(=O)[C@H](Cc1ccccc1)NC(=O)[C@@H](N)CC(=O)O [Aspartame] (H-Asp-Phe-OMe) | 160-200 times |  |  | 
O=S(=O)([O-])NC1CCCCC1.[Na+] [sodium cyclamate] | about 30 times |  |  | 
COc1cc(OC)c(C(=O)CCc2ccccc2)c(OC)c1 [3-phenyl-1-(2,4,6-trimethoxy-phenyl)propan-1-one] |  | much higher solubility in water than other dihydrochalcones | particularly good masking properties | greater than 30 ppm
COc1ccc(CCC(=O)c2c(O)cc(OC)cc2OC)cc1 [1-(2-hydroxy-4,6-dimethoxyphenyl)-3-(4-methoxyphenyl)propan-1-one] |  |  | significantly lower masking effect | below 5 ppm
